In US4444776A, “Dipyrido (4,3-B) (3,4-F) indoles, process for obtaining them, therapeutical use and pharmaceutical compositions” (priority 1977, dated 1984):
Where two headings read alike, the source gives them in different places.

Columns and labels:
[1] = Test 8: acute toxicity in vivo, ICFW mice; details: mouse, read-out: LD 500
Experimental: (§1) Test 8: Acute toxicity in vivo
(§2) The products to be tested were injected by the IP route into groups of 10 mice at various dilutions. Each day, the number of dead animals is noted. If the doses are well chosen, a 100% lethal dose and a 50% lethal dose have been able to be defined for each product. This study is limited to two months. Two isogenic mouse strains were systematically used: C3H/He and ICFW.

ICFW mice = test: Test 8: acute toxicity in vivo, ICFW mice; details: mouse, ip
Experimental: as §1, §2

L 1210 leukemia = test: Test 1: antitumoral properties on L 1210 leukemia (Table I); format: in vivo, mouse
Experimental: The lower animal antitumoral properties of the compounds according to the invention have been determined by their curative action on inoculated test L-1210 leukemia. [ZUBROD C. G., Proc. Nat. Acad. Sci. 1972, 69, 1042-1047 and SCHEPARTZ SA. SCREENING, 1971, CANCER Chemother. Rep. Part 3 vol.2 p.3].
This leukemia is maintained in ascitic form by passage (i.p. route) on CBDl (C57 B16×DBA/2)F1 mice. The preparation to be tested are injected by the intraperitoneal route at least one day after the inoculation of the cells (one injection only). The results are expressed in increased life span per cent (ILS %) according to KESSEL et al. Cancer Res. 1971, 31, 1883-1887) or in percentage of the number of cells killed by the product (the survival of the animals is proportional to the number of cells injected).
The following tests were made in groups of 10 mice, unless stipulated to the contrary.
Test 1: Study of the antitumoral properties of the compounds of the invention on L 1210 leukemia
The lower animal antitumoral properties of the compounds according to the invention were determined by their curative action on test inoculated L 1210 leukemia.
This leukemia was maintained on CBD 1 (C 57 B 16×DBA/2) F1 mice. The compounds to be tested were injected by the IP route one or more days after the inoculation of the cells (single injection). The results obtained, shown in table I hereinafter, are expressed in percentage of increase of life span (ILS %) and in percentage of the number of cells killed by the compound to be tested, the survival of the animals being proportional to the number of cells injected.
The percentage of the like span ILS % (Cancer. Res. 1971, 31, 1883-1887) is the following ratio: [formula] S^t =survival of the treated animals S^c =survival of the control animals

[2] = tested on: tumoral strain derived from the murine leukemia due to the C. FRIEND virus; test: Test 7: antitumoral activity in vitro on Friend leukemia tumoral strain; format: cell-based; details: HUM = 1
Experimental: Test 7: Study of the antitumoral activity in vitro
This activity was measured on a tumoral strain derived from the murine leukemia due to the C. FRIEND virus.
The tumoral cells multiply in suspension in a "RPMI 1640" medium (Catalogue of GIBCO Bio-cult. Ltd. Washington Road, Sandyford Industrial Estate, PAISLEY PA 3 4EP, Renfrewshire, Scotland) supplemented with 20% of embryonary calf serum, penicillin and streptomycine. The duplication time of these cells is 11 hours. The growth fraction is equal to 1 or very close to 1 (all the cells are in the cycle). The cultures are sub-culturedat time t=0 at the concentration of 2.10^5 cells per ml in Falcon dishes containing 4 ml of medium. After twenty four hours, the product to be tested was added, i.e. at a moment when the cultures are in exponential phase of growth. Twenty four hours after the addition of the product, the cells are counted and the percentage of living cells determined by an exclusion test using "trypan" blue.

[3] = Test 4: toxicity on adult F1 mice, IP; details: in vivo
From the text: Test 4: Investigation of the toxicity
The toxic dose has been sought, on adult ([…]×DBA/2) Fl mice and on new-born mice, of the compounds of the invention by injection by the IP route. The results obtained are given hereinafter:
1- On adult F1 mice (C 57 BL 6×DBA/2)F1 (IP route)

[4] = tested on: chloromonocytary tumoral cells; test: Test 9: action on chloromonocytary tumoral cells (chloroleukemia); format: in vivo, ICFW mouse
Experimental: Test 9: Action on chloromonocytary tumoral cells
In this test, the action of the products according to the invention on chloromonocytary tumoral cells was determined according to the chloroleukemia of the mouse test (ICFW mouse, co-sanguine CFW strain) isolated in Unit 22 (B. TAMBOURIN and F. WENDLING) of the "Institut National de la Sante et de la Recherche Medicale- Paris" (I.N.S.E.R.M.) in a mouse injected with a variant of the Friend virus.
The tumour kills all the animals injected in 19.3± 2 days. This tumour develops in semi-solid ascitic form; the peritoneum is invaded, both by solid tumoral masses and cells in suspension in the ascitic liquid. The tumour is transmitted by the cells of the suspension which produce the tumoral masses and the ascitic cells.

[5] = 10^3 cells, 0.01 mg/mouse (0.5 mg/kg), J+1
[6] = 10^3 cells, 0.1 mg/mouse (5 mg/kg), J+1
[7] = 10^4 cells, 0.1 mg/mouse (0.5 mg/kg) [sic], J+1
[8] = 10^4 cells, 0.1 mg/mouse (5 mg/kg), J+1
[9] = experiment no 1, 10^3 cells, 50 mg/kg, J+2
[10] = experiment no 1, 10^4 cells, 50 mg/kg, J+2
[11] = experiment no 1, 10^5 cells, 50 mg/kg, J+2
[12] = experiment no 1, 10^6 cells, 50 mg/kg, J+2
[13] = experiment no 2, 10^4 cells, 50 mg/kg, J+1
[14] = experiment no 2, 10^5 cells, 50 mg/kg, J+1
[15] = experiment no 2, 10^6 cells, 50 mg/kg, J+1

CCN(CC)CCCNc1nccc2c(C)c3[nH]c4ccncc4c3cc12 [Example 7, 1-(γ-diethylaminopropyl)amino-5-methyl-dipyrido-[4,3-b][3,4-f] indole]
LD50 ([1]; ICFW, IP): 15 mg/kg
LD 100 (ICFW mice): 25 mg/kg
ILS % (L 1210 leukemia; [5]): 17.4%
Number of cells found (L 1210 leukemia; [5]): 80
Number of cells killed (L 1210 leukemia; [5]): 92%
ILS % (L 1210 leukemia; [6]): 23.2%
Number of cells found (L 1210 leukemia; [6]): 40
Number of cells killed (L 1210 leukemia; [6]): 96%
Surviving mice (L 1210 leukemia; [6]): 5/10
ILS % (L 1210 leukemia; 10^4 cells, 0.1 mg/mouse (0.5 mg/kg) [sic], IP, J+1): 33.3%
Number of cells found (L 1210 leukemia; [7]): 60
Number of cells killed (L 1210 leukemia; [7]): 99.94%
Surviving mice (L 1210 leukemia; [7]): 1/10
ILS % (L 1210 leukemia; 10^4 cells, 0.1 mg/mouse (5 mg/kg), IP, J+1): 11.5%
Number of cells found (L 1210 leukemia; [8]): 10^3
Number of cells killed (L 1210 leukemia; [8]): 90%
Activity (ratio of the LD50 of HUM to the LD50 of the product tested) [2]: 20
mortality ([3]; 0.3 mg/mouse (15 mg/kg), IP, read-out: dead mice (converted)): 0%
mortality ([3]; 0.5 mg/mouse (25 mg/kg), IP, read-out: dead mice (converted)): 0%
mortality ([3]; 0.6 mg/mouse (30 mg/kg), IP, read-out: dead mice (converted)): 50%
mortality ([3]; 1 mg/mouse (50 mg/kg), IP, read-out: dead mice (converted)): 33.3%
LD50 ([3]; mouse, adult F1 mice, IP): 30 mg/kg
Mean survival time after treatment ([4]; 1 mg/kg 24 hours after inoculation, without treatment 18.9 ± 1.8 day): 29.0 ± 3.0 days

Cc1c2ccncc2c(C)c2c1[nH]c1ccncc12 [Example 1, 5,11-dimethyl dipyrido [4,3-b][3,4-f] indole]
LD50 ([1]; ip): 150 mg/kg
LD 100 (ICFW mice): 200 mg/kg
ILS % (L 1210 leukemia; [9]): 3%
Number of cells found (L 1210 leukemia; [9]): 800
Number of cells killed (L 1210 leukemia; [9]): 20%
Surviving mice (L 1210 leukemia; [9]): 1/10
ILS % (L 1210 leukemia; [10]): 14,78%
Number of cells found (L 1210 leukemia; [10]): 6,000
Number of cells killed (L 1210 leukemia; [10]): 40%
ILS % (L 1210 leukemia; [11]): 15,73%
Number of cells found (L 1210 leukemia; [11]): 40,000
Number of cells killed (L 1210 leukemia; [11]): 60%
Surviving mice (L 1210 leukemia; [11]): 0
ILS % (L 1210 leukemia; experiment no 1, 10^6 cells, 1 mg/mouse (50 mg/kg), IP, J+2): 34,32%
Number of cells found (L 1210 leukemia; [12]): 10^5
Number of cells killed (L 1210 leukemia; [12]): 90%
Surviving mice (L 1210 leukemia; [12]): 0
ILS % (L 1210 leukemia; [13]): 11,8%
Number of cells found (L 1210 leukemia; [13]): 5000
Number of cells killed (L 1210 leukemia; [13]): 50%
ILS % (L 1210 leukemia; [14]): 38,1%
Number of cells found (L 1210 leukemia; [14]): 2000
Number of cells killed (L 1210 leukemia; [14]): 98%
ILS % (L 1210 leukemia; experiment no 2, 10^6 cells, 1 mg/mouse (50 mg/kg), J+1): 47,3%
Number of cells found (L 1210 leukemia; [15]): 8000
Number of cells killed (L 1210 leukemia; [15]): 99%
ILS % (difference with the controls) (L 1210 leukemia; experiment no 3, 0,1 and 0,05 mg/mouse, 10^4 and 10^3 cells): no significant difference
Activity (ratio of the LD50 of HUM to the LD50 of the product tested) [2]: 3
mortality ([3]; mouse, ip, 20 mg/kg): 16.7%
mortality ([3]; mouse, ip, 40 mg/kg): 12.5%
mortality ([3]; mouse, ip, 80 mg/kg): 83.3%
Mean survival time after treatment ([4]; 40 mg/kg 6 hours after inoculation, without treatment 18.5 ± 2 days): 25.3 ± 3.1 days
